Tested on: Isolated Guinea Pig Atria
Assay: In vitro myocardial inotropic activity in isolated guinea pig atria
Assay type: cell-based, guinea pigs
Details: @ 10^-5M, isolated guinea pig left atria electrically stimulated at 1.5 Hz, PSS 30°C; for activation at 10 µM: Cavia porcellus, read-out: % Change in Myocardial Contractility (PSCI)
Procedure: Test for In Vitro Myocardial Inotropic Activity
in Isolated Guinea Pig Atria
Adult male guinea pigs weighing 300-400 g are reserpenized (2000 units i.p.) and, after ten minutes, are killed by cervical dislocation. The hearts are quickly removed and placed in a physiological salt solution (PSS) containing: 118 mM NaCI, 4.8 mM KCI, 2.4 mM CaCI, 1.2 mM MgS04, 1.0 mM NaH2P04, 11.1 m dextrose, and 27.2 mM NaHC03, maintained at pH 7.4 and 30°C. After removing all superficial blood, the hearts are perfused via the aorta to remove any blood from the coronary arteries. After five to ten minutes of perfusion, the left atria are dissected and mounted vertically in a 50 ml, water-jacketed bather containing PSS at 30°C and continuously oxygenated with 95% O2/5% CO2. The left atria are electrically stimulated at 1.5 Hz. The tissues are equilibrated for 30 minutes and washed with fresh PSS. The stimulation voltage is adjusted to 20% above the threshold and tension adjusted to Lmax (the muscle length at which tension development is maximal). The tissues are then equilibrated for an additional 30 minutes, after which the compounds to be examined are added to the tissue bather. […] The compounds are added in full or half-log concentration increments, usually over a concentration range of 1 x 10-^8 to 1 x 10-^4M. The muscles are generally allowed to assume a new steady-state contractile response before each subsequent addition of drug.
Using this procedure the inotropic activity of preferred compounds of the present invention is shown as found in the following Table 1. The reference calcium antagonist has also been tested for comparison.

| Compound | activation at 10 µM | % Change in Myocardial Contractility (PSCI) |
| --- | --- | --- |
| CCOC(=O)C1=C(C[S+]([O-])c2ccccc2)NC(C)=C(C#N)C1c1ccccc1C(F)(F)F (single isomer, unassigned) [Example 2 Isomer A, Ethyl 5-cyano-1,4-dihydro-6-methyl-2-[(phenylsulfinyl)methyl]-4-[2-(trifluoromethyl)phenyl]-3-pyridinecarboxylate] | 33% | – |
| CCOC(=O)C1=C(C[S+]([O-])c2ccccc2)NC(C)=C(C#N)C1c1ccccc1C(F)(F)F (single isomer, unassigned) [Example 2 Isomer B, Ethyl 5-cyano-1,4-dihydro-6-methyl-2-[(phenylsulfinyl)methyl]-4-[2-(trifluoromethyl)phenyl]-3-pyridinecarboxylate] | – | +53% |
| CCOC(=O)C1=C(C[S+]([O-])c2ccccc2)NC(C)=C(C#N)C1c1cccc([N+](=O)[O-])c1 (stereo not shown) [Example 2B] | 30% | – |
| CCOC(=O)C1=C(C[S+]([O-])c2ccccc2)NC(C)=C(C#N)C1c1ccccc1Cl (stereo not shown) [Example 2D] | 26% | – |
| CCOC(=O)C1=C(CS(=O)(=O)c2ccccc2)NC(C)=C(C#N)C1c1ccccc1C(F)(F)F (stereo not shown) [Example 3A, Ethyl 5-cyano-1,4-dihydro-6-methyl-2-[(phenylsulfonyl)methyl]-4-[2-(trifluoromethyl)phenyl]-3-pyridinecarboxylate] | 26% | – |
| CCOC(=O)C1=C(CS(=O)(=O)c2ccccc2C)NC(C)=C(C#N)C1c1ccccc1C(F)(F)F (stereo not shown) [Example 3C] | 33% | – |
| CCOC(=O)C1=C(CS(=O)(=O)c2ccccc2Cl)NC(C)=C(C#N)C1c1ccccc1C(F)(F)F (stereo not shown) [Example 3D] | 33% | – |

From patent EP0206747B1, “1,4-Dihydropyridine derivatives useful in the treatment of cardiovascular disorders, and a process for producing the derivatives” (WARNER-LAMBERT COMPANY, priority 1985, dated 1986)
